Reference: patent publication US12050224B2, “Compounds useful as near-infrared fluorescent probes selectively binding to tau aggregates and method of preparing the same” (KOREA INSTITUTE OF SCIENCE AND TECHNOLOGY, priority 2020, dated 2024)

Columns and labels:
[1] = Measurement of absorbance and fluorescence of synthesized compound in ethanol; assay type: physicochemical; details: 10 μM in ethanol; for λem: Maximum emission wavelength / λex: Maximum excitation wavelength: average of three measurements; for Stokes shift: difference between excitation and emission
Protocol: In order to investigate the optical properties of the newly synthesized compound in the present invention, the absorbance was measured using a V-730 UV-visible spectrophotometer manufactured by JASCO, and fluorescence was measured using a FlexStation 3 multi-mode microplate reader manufactured by Molecular Devices. Absorbance and fluorescence were measured three times at a concentration of 10 μM in ethanol, and the average thereof is shown in Table 1 below. At this time, T807 (AV-1451) as a Tau positron-emission-tomography (PET) tracer and Thioflavin S, which are commercially available to detect tau production in vivo, were used as a control group.

[2] = biological target: bovine serum albumin (BSA) (Bos taurus, UniProt P02769); assay: Measurement of non-specific binding using BSA; details: compound 10 μM, 0.25 mg/ml BSA, 30 min incubation
bovine serum albumin (BSA), sequence (P02769 25-607): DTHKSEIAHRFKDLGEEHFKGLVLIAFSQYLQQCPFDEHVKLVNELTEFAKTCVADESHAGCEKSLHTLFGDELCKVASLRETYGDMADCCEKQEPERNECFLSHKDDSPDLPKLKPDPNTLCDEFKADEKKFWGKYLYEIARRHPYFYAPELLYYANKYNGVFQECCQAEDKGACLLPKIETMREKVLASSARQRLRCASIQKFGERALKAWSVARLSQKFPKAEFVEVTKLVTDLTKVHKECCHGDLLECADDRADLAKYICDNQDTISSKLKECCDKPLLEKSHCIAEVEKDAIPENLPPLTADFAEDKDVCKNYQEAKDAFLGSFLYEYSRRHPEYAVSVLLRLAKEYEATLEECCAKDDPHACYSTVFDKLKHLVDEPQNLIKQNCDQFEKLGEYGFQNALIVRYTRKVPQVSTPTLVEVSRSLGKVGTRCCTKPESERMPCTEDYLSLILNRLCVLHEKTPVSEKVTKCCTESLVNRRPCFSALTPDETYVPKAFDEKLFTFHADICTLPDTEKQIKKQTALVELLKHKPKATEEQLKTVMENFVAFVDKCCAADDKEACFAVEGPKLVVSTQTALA
Protocol: In order to exclude non-specific binding of the compound to serum, reactivity between the compound and bovine serum albumin (BSA) was further tested. 25 μl of a 10 μM compound was incubated along with 25 μl of 0.25 mg/ml BSA for 30 minutes, and then the fluorescence spectrum reaction was measured using a spectrophotometer. The BSA response was conducted to identify non-selective binding to other proteins in the blood when applied to patients as an imaging agent.

[3] = biological target: T1, amyloid beta aggregates (Abeta40) (Homo sapiens, UniProt P05067); assay: In vitro binding assay (fluorescence labeling ability) to amyloid beta aggregates; details: compound 10 μM, PBS, 30 min incubation
T1 construct: the synthesized Abeta40 (Amyloid Beta 40) peptide was dissolved in PBS; host or cells: synthetic peptide
T1 sequence (P05067 672-711 limits assumed): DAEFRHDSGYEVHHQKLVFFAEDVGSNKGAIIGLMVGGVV
Protocol: (§1) Experimental Example 2-1: Tau and amyloid beta aggregation induction For amyloid aggregation induction, the synthesized Abeta40 (Amyloid Beta 40) peptide was dissolved in PBS at a concentration of 0.5 mg/ml to induce aggregation for 7 days at 37° C. and 200 rpm with shaking. To induce aggregation of tau proteins, aggregation of Tau-K18 protein (0.5 mg/ml in PBS) purified and isolated from E. coli with heparin (0.1 mg/ml) and DTT (100 μM) was induced at 37° C. and 200 rpm for 7 days under shaking conditions. […] At this time, thioflavin S (Th S), which is known to bind to beta-sheet structures such as tau and amyloid aggregates, was used as a control group (Ex: 430 nm, Em: 480-610 nm). Specifically, in order to determine the labeling ability of newly synthesized compounds to tau aggregate proteins, a 25 μl dilution of a 10 μM labeling substance in PBS and 25 id of a 0.125 mg/ml tau or amyloid pre-aggregate or aggregate diluted in PBS were each incubated for 30 minutes, and then a fluorescence spectrum reaction was measured using a spectrophotometer. Selectivity analysis for tau aggregates and amyloid beta aggregates of the novel synthetic compounds of the present invention was performed as described above, and the resulting in vitro fluorescence changes are summarized in Table 2 and FIG. 1 below.

[4] = biological target: T2, tau aggregates (Tau-K18 protein) (Homo sapiens, UniProt P10636); assay: In vitro binding assay (fluorescence labeling ability) to tau aggregates; details: for SIaβ: selectivity index = fluorescence intensity of probe bound to Tau aggregate / bound to Aβ aggregate / SItaumono: selectivity index, tau aggregate versus tau monomer / FItau: fold increase = fluorescence intensity of probe bound to tau aggregate / probe (free): compound 10 μM; for FItau: fold increase = fluorescence intensity of probe bound to tau aggregate / probe (free): PBS, 30 min incubation; for selectivity for tau aggregates over amyloid aggregates: in vitro screening as fluorescent probes
T2 construct: aggregation of Tau-K18 protein (0.5 mg/ml in PBS) purified and isolated from E. coli; made in house; host or cells: E. coli
T2 sequence (P10636 561-685 limits assumed): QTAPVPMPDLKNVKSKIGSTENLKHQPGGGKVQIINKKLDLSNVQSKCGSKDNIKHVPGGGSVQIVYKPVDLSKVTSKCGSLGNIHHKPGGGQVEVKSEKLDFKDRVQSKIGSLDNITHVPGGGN
Protocol: as §1

Row | λem: Maximum emission wavelength [1] | λex: Maximum excitation wavelength [1] | Stokes shift [1] | FIBSA: fold increase = fluorescence intensity of probe bound to BSA / probe (free) [2] | FIAβ: fold increase = fluorescence intensity of probe bound to Aβ aggregate / probe (free) [3] | SIaβ: selectivity index = fluorescence intensity of probe bound to Tau aggregate / bound to Aβ aggregate [4] | SItaumono: selectivity index, tau aggregate versus tau monomer [4] | FItau: fold increase = fluorescence intensity of probe bound to tau aggregate / probe (free) [4] | selectivity for tau aggregates over amyloid aggregates [4] | SMILES
1 | 601 nm | 339 nm | 202 nm | 1.23 | 1.10 | 4.6 | 5.2 | 5.12 | 4.6 times | COc1ccc2nc(/C=C/C(=O)c3ccc(N(C)C)cc3)ccc2c1 [Compound 13a, (E)-1-(4-(dimethylamino)phenyl)-3-(6-methoxyquinolin-2-yl)prop-2-en-1-one]
2 | 570 nm | 378 nm | 192 nm | 1.72 | 1.67 | 2.8 | 3.2 | 4.63 | – | Nc1ccc(C(=O)/C=C/c2ccc3cc(O)ccc3n2)cc1 [Compound 13c, (E)-1-(4-aminophenyl)-3-(6-hydroxyquinolin-2-yl)prop-2-en-1-one]
3 | 454 nm | 314 nm | 140 nm | 1.57 | 1.88 | 3.2 | 4.8 | 6.05 | – | COc1ccc2nc(/C=C/C(=O)c3ccc(C)cc3)ccc2c1 [Compound 13d, (E)-1-(4-tolyl)-3-(6-methoxyquinolin-2-yl)prop-2-en-1-one]
4 | 415 nm | 314 nm | 101 nm | 1.39 | 1.37 | 3.8 | 2.2 | 5.18 | 3.8 times | COc1ccc2nc(/C=C/C(=O)c3ccc(Br)cc3)ccc2c1 [Compound 13e, (E)-1-(4-bromophenyl)-3-(6-methoxyquinolin-2-yl)prop-2-en-1-one]
5 | 415 nm | 359 nm | 56 nm | 0.60 | 0.54 | 1.9 | 2.0 | 1.01 | – | COc1ccc2nc(/C=C/c3ccc(C(F)(F)F)cc3)ccc2c1 [Compound 14a, (E)-6-methoxy-2-(4-(trifluoromethyl)styryl)quinolone]
6 | 420 nm | 357 nm | 63 nm | 0.61 | 0.57 | 1.4 | 1.3 | 0.79 | – | COc1ccc2nc(/C=C/c3ccncc3)ccc2c1 [Compound 14b, (E)-6-methoxy-2-(2-(pyridin-4-yl)vinyl)quinolone]
7 | 602 nm | 400 nm | 202 nm | 0.26 | 0.32 | 2.0 | 3.6 | 0.63 | – | CNc1ccc(/C=C/C=C/c2ccc3cc(OC)ccc3n2)cc1 [Compound 15b, 4-((1E,3E)-4-(6-methoxyquinolin-2-yl)buta-1,3-dien-1-yl)-N-methylanaline]
8 | 600 nm | 399 nm | 201 nm | 0.19 | 0.18 | 1.2 | 3.9 | 0.81 | – | COc1ccc2nc(/C=C/C=C/c3ccc(N(C)C)cc3)ccc2c1 [Compound 15c, 4-((1E,3E)-4-(6-methoxyquinolin-2-yl)buta-1,3-dien-1-yl)-N,N-dimethylaniline]
9 | 520 nm | 402 nm | 118 nm | 1.05 | 1.25 | 1.1 | 1.3 | 1.33 | – | COc1ccc2nc(/C=C/C=C/c3ccc(N(C)C)nc3)ccc2c1 [Compound 15d, 5-((1E,3E)-4-(6-methoxyquinolin-2-yl)buta-1,3-dien-1-yl)-N,N-dimethylpyridin-2-amine]
10 | 587 nm | 389 nm | 198 nm | 0.17 | 0.44 | 2.2 | 4.5 | 0.95 | – | COc1ccc2nc(/C=C/C=C/c3ccc([N+](=O)[O-])nc3)ccc2c1 [Compound 15e, 6-methoxy-2-((1E,3E)-4-(6-nitropyridin-3-yl)buta-1,3-dien-1-yl)quinolone]
11 | 415 nm | 360 nm | 55 nm | 1.75 | 3.27 | 1.2 | 4.4 | 3.91 | – | COc1ccc2nc(/C=C/C=C/c3cccc(Cl)c3)ccc2c1 [Compound 15f, 6-methoxy-2-((1E,3E)-4-(3-chlorophenyl)buta-1,3-dien-1-yl)quinolone]
12 | 452 nm | 361 nm | 91 nm | 1.33 | 0.58 | 5.8 | 3.7 | 3.42 | 5.8 times | COc1ccc2nc(/C=C/C=C/c3cccc([N+](=O)[O-])c3)ccc2c1 [Compound 15g, 6-methoxy-2-((1E,3E)-4-(3-nitrophenyl)buta-1,3-dien-1-yl)quinolone]
13 | 369 nm | 304 nm | 65 nm | – | – | – | – | – | – | Fc1ccc(-c2ccc3c(c2)[nH]c2ccncc23)cn1 [Compound T807, reference compound]
